In patent publication US20140271723A1 (priority 2013, published 2014):

System: pseudorabies virus (PRV)
Set-up: species or system pigs
Conditions: pig, in vivo

| Sequence | protection from mortality caused by challenge with virulent PRV |
| --- | --- |
| KKSVRGKGKGQKRKRKKSRYKSWSV [VEGF peptide] | protected the animals from mortality |
| YVRVRRPPKGKHRKFKHTH [PDGF peptide] | protected the animals from mortality |
